Patent publication US20250276965A1, “PROCESS FOR THE PREPARATION OF ANTIBACTERIAL COMPOUNDS” (DISCUVA LIMITED, priority 2021, published 2025)

Key:
[1] = system: E. coli BAA-2469 (NDM-1 positive); assay: Proof-of-concept murine bacteraemia or bloodstream infection model, IV bolus; assay type: in vivo; conditions: CD-1 mice, single dose IV bolus 20 mg/kg
Description: (§1) Compound (I) and comparative compound (III) were evaluated in proof-of-concept studies in murine models for the treatment of a respiratory infection with Gram-negative bacteria of the order Enterobacterales, a bacteraemia or bloodstream infection with Gram-negative bacteria of the order Enterobacterales, and a urinary tract infection with Gram-negative bacteria of the order Enterobacterales. Each dot, triangle or square indicator represents a single mouse. LOD refers to the limit of detection of the bacteria. […] Each of the proof-of-concept studies was carried out separately. By vehicle is meant pharmaceutically acceptable carrier or excipient.
For the proof-of-concept study for the treatment of a bacteraemia or bloodstream infection with Gram-negative bacteria of the order Enterobacterales, CD-1 mice were infected with human urine isolate E. coli BAA-2469 (NDM-1 positive). One hour after infection (‘pre-treatment’ in FIG. 3), a vehicle (20% hydroxypropyl β cyclodextrin) containing no compound (I) or comparative compound (III), or a vehicle (20% hydroxypropyl β cyclodextrin) containing compound (I) or comparative compound (III), was administered by as a single dose IV bolus at 20 mg/kg.

[2] = system: Klebsiella pneumoniae ATCC 43816; assay: Proof-of-concept murine respiratory infection model, IV bolus; assay type: in vivo; conditions: CD-1 mice, 20 mg/kg IV bolus TID, 26 h
Description: as §1, with “excipient. For the proof-of-concept study for the treatment of a respiratory infection caused or exacerbated by Gram-negative bacteria of the order Enterobacterales, CD-1 mice were infected with Klebsiella pneumoniae ATCC 43816. Two hours after infection (‘pre-treatment’ in FIG. 2), a vehicle (20% hydroxypropyl β cyclodextrin) containing no compound (I) or comparative compound (III), or a vehicle (20% hydroxypropyl β cyclodextrin) containing compound (I) or comparative compound (III), was administered by IV bolus at 20 mg/kg, TID (8 hrs apart), over one day.” for “excipient.”

[3] = system: 44 ligands (including receptors, transporters, ion channels, enzymes and kinases); assay: In vitro safety pharmacology binding assays (CEREP profile); conditions: 10 μM, 44 ligands tested, radioligand binding
Description: In vitro pharmacology binding assays were carried out for compound (I), comparative compound (II) and comparative compound (III) to evaluate the percentage of inhibition against 44 ligands (including receptors, transporters, ion channels, enzymes and kinases) at a concentration of 10 μM of compound (I), comparative compound (II) or comparative compound (III). Compound binding was calculated as a percentage of inhibition of the binding of a radioactively labelled ligand specific for each target. Results showing an inhibition higher than 50% are considered to represent discernible effects of compound (I), comparative compound (II) or comparative compound (III). […] The in vitro pharmacology binding assays for compound (I) and comparative compounds (II) and (III) was carried out separately over different days, and compared in FIGS. 1a, 1b, 1c, and 1d.

[4] = system: Klebsiella pneumonia (100 isolates); assay: MIC90 by broth microdilution (EUCAST), 100 isolates of Klebsiella pneumonia; assay type: cell-based; conditions: test concentrations 0.03-64 μg/mL
Description: (§2) Minimum Inhibitory Concentration (MIC90) versus 100 isolates of Escherichia coli and Klebsiella pneumonia were determined. The Minimum Inhibitory Concentration at which 90% of the isolates (strains) are inhibited (MIC90) were measured by broth microdilution in line with EUCAST susceptibility testing standards (www.eucast.org). Bacterial inocula were prepared at ca 1×10^6 CFU/mL by diluting 100-fold a 0.5 McFarland suspension. Antibacterial panels containing 50 μl of antibacterial solutions at 2×the final concentrations were diluted 2-fold with 50 μl of inoculum to give a final inoculum of ca 5×10^5 CFU/ml and desired test concentrations of antibacterial agents (0.03-64 μg/mL). The plates were incubated according to the guidelines of the Clinical and Laboratory Standards Institute (Clinical and Laboratory Standards Institute. Methods for Dilution Antimicrobial Susceptibility Tests for Bacteria That Grow Aerobically; Approved Standard-Eleventh Edition, CLSI document […], 11 Jan. 2018). The MIC90 (μg/ml) is the MIC value at which greater than or equal to 90% of the isolates (strains) within a test population are inhibited.

[5] = system: Providencia spp. (10 isolates); assay: MIC by broth microdilution versus Providencia spp. isolates; assay type: cell-based
Description: as §2, with “inhibited. Minimum Inhibitory Concentrations (MICs) versus Proteus spp. and Providencia spp. were determined for compound (I) and comparative compound (III) using the methodology outlined above for the 100 isolates of Escherichia coli and Klebsiella pneumonia.” for “inhibited.”

E. coli UT189 = assay: Further proof-of-concept murine urinary tract infection model, intravenous infusion; assay type: in vivo; conditions: 96 h
Description: Compound (I) was evaluated in further proof-of-concept studies in murine models for the treatment of a respiratory infection with Gram-negative bacteria of the order Enterobacterales, and a urinary tract infection with Gram-negative bacteria of the order Enterobacterales. Each dot, triangle or square indicator represents a single mouse. LOD refers to the limit of detection of the bacteria. […] Each of the proof-of-concept studies was carried out separately. By vehicle is meant pharmaceutically acceptable excipient or carrier. For the further proof-of-concept study for the treatment of a urinary tract infection with Enterobacterales, female C3H/HeN mice were infected with E. coli UT189. Twenty-four hours after infection (‘pre-treatment’ in FIGS. 6a-c), mice were either treated with a vehicle control (20% hydroxypropyl β cyclodextrin) containing no compound (I), or a vehicle (20% hydroxypropyl β cyclodextrin) containing compound (I), administered by intravenous infusion for 1 hour (QD) with a dose of 20 mg/kg of compound (I). For some mice who received vehicle containing compound (I), an additional 1-hour continuous intravenous infusion was administered 5 hours after the time at which the first administration begun (BID, 5 hrs apart). The once or twice daily administration was continued for three days. For QD, administration took place between 24 to 25 hours, 48 to 49 hours, and 72 to 73 hours after infection, and for BID, administration took place between 24 to 25 hours, 29 to 30 hours, 48 to 49 hours, 53 to 54 hours, 72 to 73 hours and 77 to 78 hours after infection.

[6] = system: Proteus spp. (10 isolates); assay: MIC by broth microdilution versus Proteus spp. isolates; assay type: cell-based
Description: as §2, with “inhibited. Minimum Inhibitory Concentrations (MICs) versus Proteus spp. and Providencia spp. were determined for compound (I) and comparative compound (III) using the methodology outlined above for the 100 isolates of Escherichia coli and Klebsiella pneumonia.” for “inhibited.”

E. coli UTI89 = assay: Proof-of-concept murine urinary tract infection model, IV bolus; assay type: in vivo; conditions: IV bolus 20 mg/kg TID over 3 days, 96 h
Description: as §1, with “excipient. For the proof-of-concept study for the treatment of a urinary tract infection with Enterobacterales, female C3H/HeN mice were infected with E. coli UTI89. Twenty-four hours after infection (‘pre-treatment’ in FIGS. 4a-c), a vehicle (20% hydroxypropyl β cyclodextrin) containing no compound (I) or comparative compound (III), or a vehicle (20% hydroxypropyl β cyclodextrin) containing compound (I) or comparative compound (III), was administered by IV bolus of 20 mg/kg, TID (8 hrs apart), over 3 days.” for “excipient.”

[7] = system: Escherichia coli (100 isolates); assay: MIC90 by broth microdilution (EUCAST), 100 isolates of Escherichia coli; assay type: cell-based; conditions: test concentrations 0.03-64 μg/mL
Description: as §2

[8] = both QD and BID daily administration

MIC Range Klebsiella pneumonia (100 isolates) [4] [µg/mL]	MIC Range Providencia spp. (10 isolates) [5] [µg/mL]	MIC Range Proteus spp. (10 isolates) [6] [µg/mL]	MIC Range Escherichia coli (100 isolates) [7] [µg/mL]	SMILES	CFU value in the blood relative to stasis level ([1]; 9 h)	CFU value in the lung relative to stasis level [2]	ligands with inhibition higher than 50% [3]	bacterial burden in the kidney at end of study (E. coli UT189; BID administration)	bacterial burden in the bladder at end of study (E. coli UT189; [8])	bacterial burden in the urine at end of study (E. coli UT189; [8])	bacterial burden in the blood at end of study ([1]; 9 h after initial infection)	more efficacious than comparative compound (III) in reducing the CFU in the bladder (E. coli UTI89) [log]	more efficacious than comparative compound (III) in reducing the CFU in the urine (E. coli UTI89) [log]	bacterial burden in the urine at end of study (E. coli UTI89; female C3H/HeN mice)
–	–	–	–	Cc1cnccc1-c1[nH]c(N)nc1-c1ccc2c(c1)N(C(=O)CN)CCO2 [Comparative Compound (III), reference compound]	on or above the stasis level	relatively close to the stasis level	–	–	–	–	–	–	–	–
0.25 to 8.00	0.5 to 16	8 to 32	0.12 to 4.00	Cc1cnccc1-c1[nH]c(N)nc1-c1ccc2c(c1)N(C(=O)C(C)(C)N)CCO2 [Compound (I), 2-amino-1-(6-(2-amino-5-(3-methylpyridin-4-yl)-1H-imidazol-4-yl)-2,3-dihydro-4H-benzo[b][1,4]oxazin-4-yl)-2-methylpropan-1-one]	–	–	only a single ligand	below the limit of detection (LOD)	below the limit of detection (LOD)	below the limit of detection (LOD)	below the limit of detection (LOD)	3	3	below the limit of detection (LOD)
